The assay concerns the target T1, TAAR1 (Homo sapiens, UniProt Q96RJ0).
T1 construct: expressed in transfected cells; host or cells: CHO-K1 (cAMP Hunter TAAR1 Gs cell line)
T1 sequence (Q96RJ0 1-339): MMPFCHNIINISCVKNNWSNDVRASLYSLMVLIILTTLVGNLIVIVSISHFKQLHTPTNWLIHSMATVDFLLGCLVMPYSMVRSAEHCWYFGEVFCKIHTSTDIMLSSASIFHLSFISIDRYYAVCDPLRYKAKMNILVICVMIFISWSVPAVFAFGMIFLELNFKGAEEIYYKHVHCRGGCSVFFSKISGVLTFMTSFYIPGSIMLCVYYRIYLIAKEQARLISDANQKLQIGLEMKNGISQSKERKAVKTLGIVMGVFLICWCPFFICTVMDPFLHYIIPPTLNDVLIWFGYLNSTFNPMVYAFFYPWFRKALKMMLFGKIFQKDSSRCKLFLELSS
Description: In vitro TAAR1 functional activity (cAMP Hunter CHO-K1 TAAR1 Gs cell line, HitHunter cAMP assay). The format is cell-based. The following applies: chemiluminescence cAMP readout. As for the experimental part:
Test Example 1. In Vitro Evaluation of Intrasynaptic and Extrasynaptic Functional Activities in Cells
Cell: CAMP Hunter™ CHO-K1 TAAR1 Gs Cell Line
Assay Reagent: HitHunter cAMP Assay Detection Kit
Experimental Instrument: PerkinElmer Envision™ Chemiluminescence Signal Detector
Experimental method: cell treatment: The cAMP Hunter cell strain was cultured at 37° C. with 5% CO2 to 70-80% confluence. The cells were harvested, and the cell density was adjusted to 1.5×10^4 cells/mL. The cells were seeded in a white-wall 384-well microwell plate at a volume of 20 μL, and incubated at 37° C. with 5% CO2 overnight. The cell medium was discarded, and 15 μL of 2:1 HBSS/10 mM Hepes:cAMP XS+Ab reagent was added to each well. The mother solution of the sample was diluted with an assay buffer in a concentration gradient to a 4× sample, and 5 μL of the 4× sample was added to each well. The plate was incubated at 37° C. or room temperature for 30 or 60 min. […] 20 μL of cAMP XS+EA reagent was added to each well, and the plate was incubated at room temperature for 3 h. The chemiluminescence signal was read using a PerkinElmer Envision™ detector.
Data analysis: EC50 was calculated using CBIS data analysis software (ChemInnovation, CA). The activity percentage was calculated using the following formula: % activity=100%×(test sample average RLU−solvent control average RLU)/(maximum control average RLU−solvent control average RLU).

[1] abbreviates: cAMP Hunter CHO-K1 TAAR1 Gs cell line, read-out: EC50.
The mark [2] stands for this setting: EC50, cAMP Hunter CHO-K1 TAAR1 Gs cell line.

Like-named read-outs stand apart in the source and are kept apart here.

As a reminder, the EC50 is the midpoint of the concentration-response curve. Regarding `CN1CCc2ccsc2C1CN` (single isomer, unassigned) [Compound 42-b], the EC50 under setting [1] came to 0.244 µM.

In the case of `CC(C)Oc1ccsc1C1CNCCO1` (centres unmarked) [Compound 15], the EC50 under setting [2] is more than 10 µM.

Regarding `NCC1SCCc2ccsc21` (single isomer, unassigned) [Compound 43-b], under setting [1], the EC50 was found to be 0.031 µM.

As to `CNCC1OCC(C)(C)c2ccsc21` (centres unmarked) [Compound 35], the EC50 under setting [1] is more than 10 µM.

Under setting [2], `FC(F)COc1ccsc1C1CNCCO1` (centres unmarked) [Compound 19] showed an EC50 of more than 10 µM.

Regarding `FC(F)(F)COc1ccsc1C1CNCCO1` (centres unmarked) [Compound 20], the EC50 under setting [1] amounted to 4.72 µM.

With `CNCC1OC(COC)Cc2ccsc21` (centres unmarked) [Compound 30], the EC50 under setting [1] is more than 10 µM.

Take `CNCC1OC(C)Cc2ccsc21` (single isomer, unassigned) [Compound 28-a]: under setting [1], the EC50 was more than 10 µM.

For the compound `CNCC1OCC(c2ccccc2)c2ccsc21` (single isomer, unassigned) [Compound 32-b], the 50% effective concentration (EC50) under setting [1] is more than 10 µM.

Turning to `CNCC1OC(C)Cc2ccsc21` (single isomer, unassigned) [Compound 28-b], under setting [1], the concentration giving a half-maximal response (EC50) came to 1.84 µM.

As to `CNC[C@H]1NCCc2ccsc21` [Compound 38-b], the EC50 under setting [1] was determined as 7.96 µM.

On to `NC[C@H]1NCCc2ccsc21` [Compound 41-b], for which the EC50 under setting [1] was found to be 0.424 µM.

With `CNCC1c2sccc2CCN1C` (centres unmarked) [Compound 61], under setting [1], the EC50 is more than 10 µM.

Compound `COc1ccc([C@@H]2CNCCO2)s1` [Compound 12-a] registered a concentration for a half-maximal effect (EC50) under setting [2] of more than 10 µM.

Under setting [2], `COc1ccc([C@H]2CNCCO2)s1` [Compound 12-b] had a half-maximal effective concentration (EC50) of 1.59 µM.

For the compound `FCCOc1ccsc1C1CNCCO1` (centres unmarked) [Compound 60], under setting [2], the EC50 was found to be 9.8 µM.

In the case of `OC[C@@H]1OCCc2ccsc21` [Compound 39-b], under setting [1], the EC50 is more than 10 µM.

Regarding `CNC[C@H]1SCCc2ccsc21` [Compound 40-b], the EC50 under setting [1] is 0.522 µM.

`Fc1ccc(C2CNCCO2)s1` (centres unmarked) [Compound 9]: the EC50 under setting [1] came out at 0.734 µM.

For `CNCC1OCCc2ccoc21` (centres unmarked) [Compound 37], under setting [1], the EC50 was found to be 1.23 µM.

Regarding `c1cc(C2CC2)c(C2CNCCO2)s1` (centres unmarked) [Compound 59], the EC50 under setting [1] was determined as 2.91 µM.

Consider `COc1ccsc1C1CNCCO1` (single isomer, unassigned) [Compound 10-b], for which, under setting [1], the EC50 stood at 0.386 µM.

For the compound `CN1CCN2CCc3ccsc3[C@H]2C1` [Compound 2-b], the EC50 under setting [1] was more than 10 µM.

For the compound `NCC1SCCc2ccsc21` (single isomer, unassigned) [Compound 43-a], the half-maximal effective concentration (EC50) under setting [1] is more than 10 µM.

In turn, `COc1csc([C@@H]2CNCCO2)c1` [Compound 11-a] registered an EC50 under setting [2] of more than 10 µM.

As for `CNCC1OCC(c2ccccc2)c2ccsc21` (single isomer, unassigned) [Compound 32-d], the EC50 under setting [1] was more than 10 µM.

Consider `CNC[C@@H]1SCCc2ccsc21` [Compound 40-a], for which the EC50 under setting [1] was more than 10 µM.

Take `OC[C@H]1OCCc2ccsc21` [Compound 39-a]: the EC50 under setting [1] is more than 10 µM.

Take `c1cc2c(s1)[C@H]1CNCCN1CC2` [Compound 1-a]: the EC50 under setting [1] was 9.12 µM.

As to `COc1ccsc1C1CNCCO1` (single isomer, unassigned) [Compound 10-a], the EC50 under setting [1] came to 0.028 µM.

As for `CNCC1OCC(c2ccccc2)c2ccsc21` (single isomer, unassigned) [Compound 32-c], under setting [1], the EC50 is more than 10 µM.

On to `CNC[C@@H]1NCCc2ccsc21` [Compound 38-a], for which the EC50 under setting [1] is more than 10 µM.

`Fc1csc(C2CNCCO2)c1` (centres unmarked) [Compound 8]: the EC50 under setting [2] stood at 0.295 µM.

Under setting [2], `COc1csc([C@H]2CNCCO2)c1` [Compound 11-b] gave an EC50 of 2.16 µM.

For the compound `NC[C@@H]1NCCc2ccsc21` [Compound 41-a], the EC50 under setting [1] worked out at 9.1 µM.

`CNCC1OC(C)(C)Cc2ccsc21` (centres unmarked) [Compound 34]: the EC50 under setting [1] was 1.25 µM.

Consider `CNCC1OCC(c2ccccc2)c2ccsc21` (single isomer, unassigned) [Compound 32-a], for which the EC50 under setting [1] was more than 10 µM.

Take `CN1CCc2ccsc2C1CN` (single isomer, unassigned) [Compound 42-a]: under setting [1], the EC50 was more than 10 µM.

(Values after patent US20250382306A1, “HETEROCYCLIC COMPOUND AS TAAR1 LIGAND AGONIST” (SHANDONG LUYE PHARMACEUTICAL CO., LTD., priority 2022, published 2025).)
